Test results taken from publication PMC4275348 (Molecular microbiology, 2014).
Positions count from the first letter of the chain named.

Columns and labels:
Type in all cases: cell-based, Vibrio harveyi
luxN^T159I/Y193K = molecular target: T1, luxN^T159I/Y193K (Vibrio campbellii, UniProt A7MRY4, N193K/T159I); test: Bioluminescence of V. harveyi XK006 carrying luxN T159I/Y193K
T1 sequence (A7MRY4 1-849 T159I/N193K): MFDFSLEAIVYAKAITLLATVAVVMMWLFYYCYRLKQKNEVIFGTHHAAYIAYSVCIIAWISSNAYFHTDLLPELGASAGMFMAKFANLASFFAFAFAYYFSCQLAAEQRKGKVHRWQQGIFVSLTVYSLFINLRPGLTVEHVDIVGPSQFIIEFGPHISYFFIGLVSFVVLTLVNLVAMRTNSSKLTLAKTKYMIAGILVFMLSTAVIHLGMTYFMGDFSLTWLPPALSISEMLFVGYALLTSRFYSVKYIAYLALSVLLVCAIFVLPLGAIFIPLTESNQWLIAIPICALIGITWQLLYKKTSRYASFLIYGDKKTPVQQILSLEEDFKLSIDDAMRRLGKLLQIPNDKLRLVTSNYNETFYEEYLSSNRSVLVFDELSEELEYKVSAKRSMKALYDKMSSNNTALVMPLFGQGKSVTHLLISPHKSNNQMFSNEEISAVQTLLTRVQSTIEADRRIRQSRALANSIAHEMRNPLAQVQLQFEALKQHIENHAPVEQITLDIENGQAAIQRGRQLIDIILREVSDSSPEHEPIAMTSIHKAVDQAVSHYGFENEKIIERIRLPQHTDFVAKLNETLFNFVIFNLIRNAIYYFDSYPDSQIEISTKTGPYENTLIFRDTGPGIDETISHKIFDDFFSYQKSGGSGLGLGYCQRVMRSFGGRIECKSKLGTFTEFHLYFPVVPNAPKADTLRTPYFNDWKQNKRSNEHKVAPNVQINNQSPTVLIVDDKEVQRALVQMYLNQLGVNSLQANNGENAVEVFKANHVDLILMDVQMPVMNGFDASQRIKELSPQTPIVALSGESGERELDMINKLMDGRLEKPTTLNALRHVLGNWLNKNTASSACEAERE

LuxN^H210Q = molecular target: T2, LuxN^H210Q (Vibrio campbellii, UniProt A7MRY4, H210Q); test: Bioluminescence of V. harveyi XK006 carrying luxN H210Q; settings: 1 μM AHL
T2 sequence (A7MRY4 1-849 H210Q): T1 sequence (A7MRY4 1-849 T159I/N193K) with I159T, K193N, H210Q

luxN^S184I/S230P = molecular target: T3, luxN^S184I/S230P (Vibrio campbellii, UniProt A7MRY4, S184I/S230P); test: Bioluminescence of V. harveyi XK006 carrying luxN S184I/S230P
T3 sequence (A7MRY4 1-849 S184I/S230P): T1 sequence (A7MRY4 1-849 T159I/N193K) with I159T, S184I, K193N, S230P

C[C@@H](O)CC(=O)N[C@H]1CCOC1=O [3OH-C4 HSL, N-((R)-3-hydroxybutanoyl)-L-homoserine lactone]
response (dose-dependent light production) (luxN^T159I/Y193K): most potent agonist | induction of light production (LuxN^H210Q): 50 fold | response (dose-dependent light production) (luxN^S184I/S230P): most potent agonist
